Assay results: article PMC4790851, “Iminosugars Inhibit Dengue Virus Production via Inhibition of ER Alpha-Glucosidases—Not Glycolipid Processing Enzymes” (PLoS Neglected Tropical Diseases, 2016)

Legend:
Rat intestinal sucrase = biological target: T1, Rat intestinal sucrase (Rattus norvegicus, UniProt P23739); test: In vitro enzyme inhibition, glucose release from disaccharide; type: biochemical; conditions: concentration required to inhibit the enzyme to 50% activity; read-out: IC50
T1 construct: from tissue; host or cells: rat intestine
T1 sequence (P23739 whole entry): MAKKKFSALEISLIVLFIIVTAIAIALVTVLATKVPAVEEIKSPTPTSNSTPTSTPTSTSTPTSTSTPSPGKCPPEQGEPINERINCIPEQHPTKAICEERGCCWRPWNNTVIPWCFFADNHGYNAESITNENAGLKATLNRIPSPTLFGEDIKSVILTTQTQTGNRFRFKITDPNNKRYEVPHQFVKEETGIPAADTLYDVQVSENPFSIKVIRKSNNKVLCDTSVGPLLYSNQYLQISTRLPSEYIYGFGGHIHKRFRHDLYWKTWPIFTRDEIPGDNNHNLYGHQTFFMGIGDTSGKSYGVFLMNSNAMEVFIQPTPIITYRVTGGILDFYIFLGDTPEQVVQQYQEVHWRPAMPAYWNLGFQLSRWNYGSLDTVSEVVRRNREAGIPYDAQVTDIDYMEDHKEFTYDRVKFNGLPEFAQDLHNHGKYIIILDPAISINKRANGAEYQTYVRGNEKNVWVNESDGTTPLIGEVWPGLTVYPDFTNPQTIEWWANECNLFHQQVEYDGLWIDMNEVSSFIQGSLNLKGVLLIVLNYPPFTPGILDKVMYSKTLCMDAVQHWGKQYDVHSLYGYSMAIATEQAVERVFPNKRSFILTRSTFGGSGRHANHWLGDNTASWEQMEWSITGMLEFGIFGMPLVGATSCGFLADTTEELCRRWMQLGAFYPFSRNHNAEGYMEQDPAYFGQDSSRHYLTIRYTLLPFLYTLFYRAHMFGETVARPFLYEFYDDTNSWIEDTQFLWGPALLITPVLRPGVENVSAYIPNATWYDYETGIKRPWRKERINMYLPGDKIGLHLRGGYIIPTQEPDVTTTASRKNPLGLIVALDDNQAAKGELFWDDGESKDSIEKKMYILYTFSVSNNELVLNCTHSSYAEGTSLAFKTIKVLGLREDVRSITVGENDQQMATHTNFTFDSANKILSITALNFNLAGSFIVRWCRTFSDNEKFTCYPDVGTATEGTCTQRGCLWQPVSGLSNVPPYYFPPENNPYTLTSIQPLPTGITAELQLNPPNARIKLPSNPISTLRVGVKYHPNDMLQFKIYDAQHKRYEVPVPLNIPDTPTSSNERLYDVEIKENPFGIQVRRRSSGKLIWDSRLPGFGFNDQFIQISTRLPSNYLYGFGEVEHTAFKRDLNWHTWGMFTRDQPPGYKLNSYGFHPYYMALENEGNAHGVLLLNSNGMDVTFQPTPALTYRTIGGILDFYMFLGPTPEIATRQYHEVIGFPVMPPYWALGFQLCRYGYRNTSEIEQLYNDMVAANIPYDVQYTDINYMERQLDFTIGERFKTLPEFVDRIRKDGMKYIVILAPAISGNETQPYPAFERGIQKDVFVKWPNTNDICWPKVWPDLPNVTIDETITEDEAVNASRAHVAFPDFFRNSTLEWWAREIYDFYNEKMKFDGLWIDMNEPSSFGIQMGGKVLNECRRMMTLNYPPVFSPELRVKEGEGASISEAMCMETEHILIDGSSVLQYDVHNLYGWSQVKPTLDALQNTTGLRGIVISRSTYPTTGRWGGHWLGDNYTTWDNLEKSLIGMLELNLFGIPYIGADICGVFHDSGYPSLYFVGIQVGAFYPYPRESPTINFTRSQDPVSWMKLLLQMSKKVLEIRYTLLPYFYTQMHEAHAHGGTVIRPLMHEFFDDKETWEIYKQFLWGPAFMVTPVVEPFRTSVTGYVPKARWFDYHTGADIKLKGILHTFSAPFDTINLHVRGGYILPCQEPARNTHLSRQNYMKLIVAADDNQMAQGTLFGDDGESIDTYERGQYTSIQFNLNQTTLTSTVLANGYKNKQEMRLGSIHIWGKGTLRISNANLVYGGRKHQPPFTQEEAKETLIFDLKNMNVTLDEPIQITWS

ER α-glucosidase II = biological target: T2, ER α-glucosidase II (Homo sapiens, UniProt Q14697); test: Free oligosaccharide analysis in MDMΦs: Glc1Man4GlcNAc1; type: cell-based; conditions: 48 h; for accumulation of Glc1Man4GlcNAc1: 1 μM, MDMΦs, all donors; for FOS representative of ER α-glucosidase II inhibition (Glc1Man4GlcNAc1): MNTD of iminosugar (NB-DNJ 100 μM), uninfected MDMΦs
T2 construct: endogenous in cells; host or cells: primary human monocyte-derived macrophages (MDMΦ)
T2 sequence (Q14697 29-944): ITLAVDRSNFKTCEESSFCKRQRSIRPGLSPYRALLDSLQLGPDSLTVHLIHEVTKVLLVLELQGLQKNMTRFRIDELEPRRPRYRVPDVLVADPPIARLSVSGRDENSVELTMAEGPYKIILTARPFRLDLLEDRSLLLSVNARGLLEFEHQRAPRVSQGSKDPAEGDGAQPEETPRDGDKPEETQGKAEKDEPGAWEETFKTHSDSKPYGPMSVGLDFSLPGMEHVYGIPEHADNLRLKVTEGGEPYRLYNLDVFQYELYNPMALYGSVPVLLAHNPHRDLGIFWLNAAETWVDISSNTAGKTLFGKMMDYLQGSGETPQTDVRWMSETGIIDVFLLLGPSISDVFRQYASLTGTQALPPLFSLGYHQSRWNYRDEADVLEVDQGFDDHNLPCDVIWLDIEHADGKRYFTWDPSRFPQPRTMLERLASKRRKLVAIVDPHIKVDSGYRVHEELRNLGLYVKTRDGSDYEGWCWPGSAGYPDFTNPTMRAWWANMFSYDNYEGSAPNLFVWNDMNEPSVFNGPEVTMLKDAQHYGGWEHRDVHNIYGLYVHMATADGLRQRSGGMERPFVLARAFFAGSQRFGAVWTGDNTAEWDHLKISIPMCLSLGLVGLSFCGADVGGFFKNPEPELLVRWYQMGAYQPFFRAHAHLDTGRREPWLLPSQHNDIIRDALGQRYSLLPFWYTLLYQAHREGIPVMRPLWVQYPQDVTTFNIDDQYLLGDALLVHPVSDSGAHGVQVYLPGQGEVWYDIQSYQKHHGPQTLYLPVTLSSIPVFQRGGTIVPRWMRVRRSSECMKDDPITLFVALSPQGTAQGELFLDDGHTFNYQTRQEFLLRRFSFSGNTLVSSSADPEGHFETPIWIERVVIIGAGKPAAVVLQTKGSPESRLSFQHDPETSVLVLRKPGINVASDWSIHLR
T2 sequence (P14314 15-528 partner): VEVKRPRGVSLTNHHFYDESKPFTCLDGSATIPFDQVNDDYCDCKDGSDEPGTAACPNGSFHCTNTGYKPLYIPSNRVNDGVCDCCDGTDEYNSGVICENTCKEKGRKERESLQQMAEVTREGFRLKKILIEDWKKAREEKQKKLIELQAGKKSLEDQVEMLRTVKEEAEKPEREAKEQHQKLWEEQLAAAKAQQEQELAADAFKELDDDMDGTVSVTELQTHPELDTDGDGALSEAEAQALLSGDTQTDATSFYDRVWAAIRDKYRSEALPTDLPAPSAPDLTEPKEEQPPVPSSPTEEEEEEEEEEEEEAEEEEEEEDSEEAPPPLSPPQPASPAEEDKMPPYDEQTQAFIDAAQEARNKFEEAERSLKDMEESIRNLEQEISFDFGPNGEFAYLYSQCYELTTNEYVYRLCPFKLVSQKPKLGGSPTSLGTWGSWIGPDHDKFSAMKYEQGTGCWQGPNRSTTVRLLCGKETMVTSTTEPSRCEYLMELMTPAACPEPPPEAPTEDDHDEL

SMILES	IC50 (Rat intestinal sucrase) [µM]	accumulation of Glc1Man4GlcNAc1 (ER α-glucosidase II)	FOS representative of ER α-glucosidase II inhibition (Glc1Man4GlcNAc1) (ER α-glucosidase II)
CCCC(=O)O[C@H]1CN2CC[C@H](O)[C@@H]2[C@@H](O)[C@@H]1O [Celgosivir, 6-O-butanoyl-castanospermine]	2.7	led to accumulation of Glc1Man4GlcNAc1	
CCCCN1C[C@H](O)[C@@H](O)[C@H](O)[C@H]1CO [NB-DNJ, N-butyl-DNJ]	0.44	led to accumulation of Glc1Man4GlcNAc1	accumulation of peaks representative of inhibition of both α-glucosidases
CCCCCCCCCN1C[C@H](O)[C@@H](O)[C@@H](O)[C@H]1CO [NN-DGJ]	> 1000		
CCCCN1C[C@H](O)[C@@H](O)[C@@H](O)[C@H]1CO [NB-DGJ]	> 1000		fail to produce detectable ER α-glucosidase associated FOS
